In the NIST ThermoML archive (doi:10.1016/j.jct.2005.04.015):
± gives the expanded uncertainty stated by the source.

Experiment: excess molar enthalpy (molar enthalpy of mixing); xn = mol fraction of the nth substance listed
Details: Liquid, Flow calorimetry

CCOC=O [ethyl methanoate] + CCC(C)O
excess molar enthalpy [kcal/mol]
Details | 298.15 K | 308.15 K
5000 kPa, x1 = 0.1504 | 0.234 ± 0.00502 | –
5000 kPa, x1 = 0.1997 | 0.29 ± 0.00621 | –
5000 kPa, x1 = 0.2497 | 0.336 ± 0.00717 | –
5000 kPa, x1 = 0.3005 | 0.373 ± 0.00789 | –
5000 kPa, x1 = 0.3501 | 0.4 ± 0.0086 | –
5000 kPa, x1 = 0.4005 | 0.418 ± 0.00884 | –
5000 kPa, x1 = 0.4497 | 0.429 ± 0.00908 | –
5000 kPa, x1 = 0.4996 | 0.432 ± 0.00932 | –
5000 kPa, x1 = 0.5502 | 0.427 ± 0.00908 | –
5000 kPa, x1 = 0.5995 | 0.414 ± 0.00884 | –
5000 kPa, x1 = 0.6496 | 0.394 ± 0.00837 | –
5000 kPa, x1 = 0.7003 | 0.365 ± 0.00789 | –
5000 kPa, x1 = 0.7496 | 0.328 ± 0.00693 | –
5000 kPa, x1 = 0.7996 | 0.284 ± 0.00598 | –
5000 kPa, x1 = 0.8996 | 0.156 ± 0.00335 | –
5000 kPa, x1 = 0.9494 | 0.0812 ± 0.00179 | –
10000 kPa, x1 = 0.0492 | 0.0843 ± 0.00184 | –
10000 kPa, x1 = 0.0496 | – | 0.101 ± 0.0022
10000 kPa, x1 = 0.0992 | 0.17 ± 0.00359 | –
10000 kPa, x1 = 0.1 | – | 0.197 ± 0.0043
10000 kPa, x1 = 0.15 | 0.243 ± 0.00526 | –
10000 kPa, x1 = 0.1513 | – | 0.276 ± 0.00598
10000 kPa, x1 = 0.1985 | 0.3 ± 0.00645 | –
10000 kPa, x1 = 0.2007 | – | 0.337 ± 0.00717
10000 kPa, x1 = 0.2509 | 0.348 ± 0.00741 | 0.386 ± 0.00837
10000 kPa, x1 = 0.2992 | – | 0.422 ± 0.00908
10000 kPa, x1 = 0.301 | 0.383 ± 0.00813 | –
10000 kPa, x1 = 0.3487 | 0.407 ± 0.0086 | –
10000 kPa, x1 = 0.351 | – | 0.451 ± 0.00956
10000 kPa, x1 = 0.4004 | 0.425 ± 0.00908 | –
10000 kPa, x1 = 0.4008 | – | 0.47 ± 0.01
10000 kPa, x1 = 0.4495 | 0.436 ± 0.00932 | –
10000 kPa, x1 = 0.4514 | – | 0.479 ± 0.0103
10000 kPa, x1 = 0.4994 | 0.439 ± 0.00932 | –
10000 kPa, x1 = 0.4999 | – | 0.481 ± 0.0103
10000 kPa, x1 = 0.5491 | – | 0.475 ± 0.01
10000 kPa, x1 = 0.5501 | 0.433 ± 0.00932 | –
10000 kPa, x1 = 0.599 | – | 0.46 ± 0.0098
10000 kPa, x1 = 0.6015 | 0.42 ± 0.00908 | –
10000 kPa, x1 = 0.6497 | – | 0.436 ± 0.00932
10000 kPa, x1 = 0.6502 | 0.402 ± 0.0086 | –
10000 kPa, x1 = 0.6996 | 0.373 ± 0.00789 | –
10000 kPa, x1 = 0.7011 | – | 0.405 ± 0.0086
10000 kPa, x1 = 0.7497 | 0.331 ± 0.00717 | –
10000 kPa, x1 = 0.7502 | – | 0.363 ± 0.00789
10000 kPa, x1 = 0.8 | – | 0.314 ± 0.00669
10000 kPa, x1 = 0.8006 | 0.284 ± 0.00598 | –
10000 kPa, x1 = 0.8485 | 0.223 ± 0.00478 | –
10000 kPa, x1 = 0.8506 | – | 0.255 ± 0.0055
10000 kPa, x1 = 0.8986 | – | 0.185 ± 0.00406
10000 kPa, x1 = 0.9008 | 0.154 ± 0.00335 | –
10000 kPa, x1 = 0.95 | 0.0895 ± 0.00196 | –
10000 kPa, x1 = 0.9506 | – | 0.0966 ± 0.0021

CCOC=O [ethyl methanoate] + CCCO
excess molar enthalpy [kcal/mol]
Details | 298.15 K | 308.15 K
5000 kPa, x1 = 0.0488 | 0.0707 ± 0.00155 | –
5000 kPa, x1 = 0.1003 | 0.15 ± 0.00335 | –
5000 kPa, x1 = 0.1515 | 0.212 ± 0.00454 | –
5000 kPa, x1 = 0.1993 | 0.258 ± 0.0055 | –
5000 kPa, x1 = 0.2498 | 0.297 ± 0.00645 | –
5000 kPa, x1 = 0.3 | 0.324 ± 0.00693 | –
5000 kPa, x1 = 0.3498 | 0.344 ± 0.00741 | –
5000 kPa, x1 = 0.3992 | 0.359 ± 0.00765 | –
5000 kPa, x1 = 0.4512 | 0.363 ± 0.00789 | –
5000 kPa, x1 = 0.5 | 0.361 ± 0.00765 | –
5000 kPa, x1 = 0.5513 | 0.353 ± 0.00765 | –
5000 kPa, x1 = 0.5995 | 0.341 ± 0.00717 | –
5000 kPa, x1 = 0.6501 | 0.323 ± 0.00693 | –
5000 kPa, x1 = 0.7003 | 0.297 ± 0.00645 | –
5000 kPa, x1 = 0.7502 | 0.265 ± 0.00574 | –
5000 kPa, x1 = 0.7998 | 0.225 ± 0.00478 | –
5000 kPa, x1 = 0.849 | 0.181 ± 0.00382 | –
5000 kPa, x1 = 0.9006 | 0.124 ± 0.00263 | –
5000 kPa, x1 = 0.9491 | 0.0666 ± 0.00148 | –
10000 kPa, x1 = 0.0487 | 0.0792 ± 0.00174 | 0.0703 ± 0.00155
10000 kPa, x1 = 0.1 | 0.158 ± 0.00335 | –
10000 kPa, x1 = 0.1511 | 0.22 ± 0.00478 | 0.221 ± 0.00478
10000 kPa, x1 = 0.1988 | 0.266 ± 0.00574 | 0.269 ± 0.00574
10000 kPa, x1 = 0.2492 | 0.303 ± 0.00645 | 0.309 ± 0.00669
10000 kPa, x1 = 0.2993 | 0.331 ± 0.00717 | 0.34 ± 0.00717
10000 kPa, x1 = 0.349 | 0.35 ± 0.00741 | 0.361 ± 0.00765
10000 kPa, x1 = 0.4013 | 0.363 ± 0.00789 | 0.376 ± 0.00813
10000 kPa, x1 = 0.4504 | 0.37 ± 0.00789 | 0.383 ± 0.00813
10000 kPa, x1 = 0.4992 | 0.368 ± 0.00789 | 0.382 ± 0.00813
10000 kPa, x1 = 0.5505 | 0.361 ± 0.00765 | 0.374 ± 0.00789
10000 kPa, x1 = 0.5987 | 0.348 ± 0.00741 | 0.359 ± 0.00765
10000 kPa, x1 = 0.6493 | 0.329 ± 0.00693 | 0.337 ± 0.00717
10000 kPa, x1 = 0.6996 | 0.302 ± 0.00645 | 0.311 ± 0.00669
10000 kPa, x1 = 0.7496 | 0.27 ± 0.00574 | 0.276 ± 0.00598
10000 kPa, x1 = 0.7993 | 0.232 ± 0.00502 | 0.234 ± 0.00502
10000 kPa, x1 = 0.8513 | 0.184 ± 0.00406 | 0.185 ± 0.00406
10000 kPa, x1 = 0.9003 | 0.132 ± 0.00287 | 0.134 ± 0.00287
10000 kPa, x1 = 0.949 | 0.072 ± 0.0016 | 0.0643 ± 0.00143
